Structures can show the parent of a compound that is named as a salt.
Columns and labels:
Format in all cases: cell-based
[1] = test system: Acinetobacter baumannii XNWB 0007; test: MIC assay of test compounds combined with ceftazidime (8 μg/mL); settings: ceftazidime 8 μg/mL fixed
Method in brief: (§1)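 Antibiotic potentiation test: compound serially diluted, partner β-lactam at constant concentration, CAMHB medium, saline-standardised inoculum (OD600 0.1-0.15) diluted 300-fold. Incubated 16-20 h at 35±2 °C.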

[2] = test system: Klebsiella pneumoniae XNWB 0001; test: as above; settings: ceftazidime 8 μg/mL fixed
Method in brief: as §1

[3] = test system: Klebsiella pneumoniae XNWB 0002; test: as above; settings: ceftazidime 8 μg/mL fixed
Method in brief: as §1

[4] = test system: Klebsiella pneumoniae XNWB 0003; test: as above; settings: ceftazidime 8 μg/mL fixed
Method in brief: as §1

[5] = test system: Klebsiella pneumoniae XNWB 0004; test: as above; settings: ceftazidime 8 μg/mL fixed
Method in brief: as §1

[6] = test system: Klebsiella pneumoniae XNWB 0005; test: as above; settings: ceftazidime 8 μg/mL fixed
Method in brief: as §1

[7] = test system: Klebsiella pneumoniae XNWB 0006; test: as above; settings: ceftazidime 8 μg/mL fixed
Method in brief: as §1

[8] = test system: Pseudomonas aeruginosa XNWB 0008; test: as above; settings: ceftazidime 8 μg/mL fixed
Method in brief: as §1

[9] = test system: Acinetobacter baumannii XNWB 0007; test: MIC assay of test compounds combined with imipenem (4 μg/mL); settings: imipenem 4 μg/mL fixed
Method in brief: as §1

[10] = test system: Klebsiella pneumoniae XNWB 0001; test: as above; settings: imipenem 4 μg/mL fixed
Method in brief: as §1

[11] = test system: Klebsiella pneumoniae XNWB 0002; test: as above; settings: imipenem 4 μg/mL fixed
Method in brief: as §1

[12] = test system: Klebsiella pneumoniae XNWB 0003; test: as above; settings: imipenem 4 μg/mL fixed
Method in brief: as §1

[13] = test system: Klebsiella pneumoniae XNWB 0004; test: as above; settings: imipenem 4 μg/mL fixed
Method in brief: as §1

[14] = test system: Klebsiella pneumoniae XNWB 0005; test: as above; settings: imipenem 4 μg/mL fixed
Method in brief: as §1

[15] = test system: Klebsiella pneumoniae XNWB 0006; test: as above; settings: imipenem 4 μg/mL fixed
Method in brief: as §1

[16] = test system: Pseudomonas aeruginosa XNWB 0008; test: as above; settings: imipenem 4 μg/mL fixed
Method in brief: as §1

| Structure (SMILES) | The minimum concentration of test compounds combined with ceftazidime (8 μg/mL) for bacteriostasis [1] | The minimum concentration of test compounds combined with ceftazidime (8 μg/mL) for bacteriostasis [2] | The minimum concentration of test compounds combined with ceftazidime (8 μg/mL) for bacteriostasis [3] | The minimum concentration of test compounds combined with ceftazidime (8 μg/mL) for bacteriostasis [4] | The minimum concentration of test compounds combined with ceftazidime (8 μg/mL) for bacteriostasis [5] | The minimum concentration of test compounds combined with ceftazidime (8 μg/mL) for bacteriostasis [6] | The minimum concentration of test compounds combined with ceftazidime (8 μg/mL) for bacteriostasis [7] | The minimum concentration of test compounds combined with ceftazidime (8 μg/mL) for bacteriostasis [8] | The minimum concentration of test compounds combined with imipenem (4 μg/mL) for bacteriostasis [9] | The minimum concentration of test compounds combined with imipenem (4 μg/mL) for bacteriostasis [10] | The minimum concentration of test compounds combined with imipenem (4 μg/mL) for bacteriostasis [11] | The minimum concentration of test compounds combined with imipenem (4 μg/mL) for bacteriostasis [12] | The minimum concentration of test compounds combined with imipenem (4 μg/mL) for bacteriostasis [13] | The minimum concentration of test compounds combined with imipenem (4 μg/mL) for bacteriostasis [14] | The minimum concentration of test compounds combined with imipenem (4 μg/mL) for bacteriostasis [15] | The minimum concentration of test compounds combined with imipenem (4 μg/mL) for bacteriostasis [16] |
| --- | --- | --- | --- | --- | --- | --- | --- | --- | --- | --- | --- | --- | --- | --- | --- | --- |
| N=C(N)NCC(O)c1nnc([C@@H]2CC3(CC3)[C@@H]3CN2C(=O)N3OS(=O)(=O)O)o1 (stereo partly drawn) [Example 10, (1R,4S)-4-(5-(2-guanidyl-1-hydroxyethyl)-1,3,4-oxadiazol-2-yl)-6-oxo-5,7-diazaspiro [bicyclo[3.2.1]octane-2,1′-cyclopropan]-7-yl sulfate] | C (C: 16-128 μg/mL) | A (A: <8 μg/mL) | A (A: <8 μg/mL) | A (A: <8 μg/mL) | A (A: <8 μg/mL) | A (A: <8 μg/mL) | A (A: <8 μg/mL) | B (B: 8-16 μg/mL) | A (A: <8 μg/mL) | A (A: <8 μg/mL) | A (A: <8 μg/mL) | A (A: <8 μg/mL) | A (A: <8 μg/mL) | A (A: <8 μg/mL) | A (A: <8 μg/mL) | A (A: <8 μg/mL) |
| O=C(NC1CCNCC1)[C@@H]1CC[C@@H]2CN1C(=O)N2OS(=O)(=O)O [Relebactam, reference compound] | C (C: 16-128 μg/mL) | A (A: <8 μg/mL) | A (A: <8 μg/mL) | A (A: <8 μg/mL) | A (A: <8 μg/mL) | A (A: <8 μg/mL) | A (A: <8 μg/mL) | A (A: <8 μg/mL) | C (C: 16-128 μg/mL) | A (A: <8 μg/mL) | A (A: <8 μg/mL) | A (A: <8 μg/mL) | A (A: <8 μg/mL) | A (A: <8 μg/mL) | A (A: <8 μg/mL) | A (A: <8 μg/mL) |
| O=C1N2C[C@H](N1OS(=O)(=O)O)C1(CC1)C[C@H]2c1nnc(CC2CNC2)o1 [Example 23, (1R,4S)-4-(5-(azetidin-3-ylmethyl)-1,3,4-oxadiazol-2-yl)-6-oxo-5,7-diazaspiro[bicycle [3.2.1]octane-2,1′-cyclopropan]-7-yl sulfate] | C (C: 16-128 μg/mL) | A (A: <8 μg/mL) | A (A: <8 μg/mL) | A (A: <8 μg/mL) | A (A: <8 μg/mL) | A (A: <8 μg/mL) | A (A: <8 μg/mL) | B (B: 8-16 μg/mL) | B (B: 8-16 μg/mL) | A (A: <8 μg/mL) | A (A: <8 μg/mL) | A (A: <8 μg/mL) | A (A: <8 μg/mL) | A (A: <8 μg/mL) | A (A: <8 μg/mL) | A (A: <8 μg/mL) |
| NCCCc1nnc([C@@H]2CC3(CC3)[C@@H]3CN2C(=O)N3OS(=O)(=O)O)o1 [Example 6, sodium (1R,4S)-4-(5-(3-aminopropyl)-1,3,4-oxadiazol-2-yl)-6-oxo-5,7-diazaspiro [bicycle[3.2.1]octane-2,1′-cyclopropan]-7-yl sulfate] | C (C: 16-128 μg/mL) | A (A: <8 μg/mL) | A (A: <8 μg/mL) | B (B: 8-16 μg/mL) | B (B: 8-16 μg/mL) | B (B: 8-16 μg/mL) | A (A: <8 μg/mL) | C (C: 16-128 μg/mL) | B (B: 8-16 μg/mL) | A (A: <8 μg/mL) | A (A: <8 μg/mL) | A (A: <8 μg/mL) | A (A: <8 μg/mL) | A (A: <8 μg/mL) | A (A: <8 μg/mL) | B (B: 8-16 μg/mL) |
| N=C(N)NCC(O)c1cc([C@@H]2CC3(CC3)[C@@H]3CN2C(=O)N3OS(=O)(=O)O)no1 (stereo partly drawn) [Example 38, (1R,4S)-4-(5-(2-guanidyl-1-hydroxyethyl)isoxazol-3-yl)-6-oxo-5,7-diazaspiro[bicycle [3.2.1]octane-2,1′-cyclopropan]-7-yl sulfate] | C (C: 16-128 μg/mL) | A (A: <8 μg/mL) | A (A: <8 μg/mL) | A (A: <8 μg/mL) | A (A: <8 μg/mL) | A (A: <8 μg/mL) | A (A: <8 μg/mL) | B (B: 8-16 μg/mL) | C (C: 16-128 μg/mL) | A (A: <8 μg/mL) | A (A: <8 μg/mL) | A (A: <8 μg/mL) | A (A: <8 μg/mL) | A (A: <8 μg/mL) | A (A: <8 μg/mL) | A (A: <8 μg/mL) |
| O=C1N2C[C@H](N1OS(=O)(=O)O)C1(CC1)C[C@H]2c1ccon1 [Example 54, (1R,4S)-4-(isoxazol-3-yl)-6-oxo-5,7-diazaspiro[bicyclo[3.2.1]octane-2,1′-cyclopropan]-7-yl sulfate] | C (C: 16-128 μg/mL) | B (B: 8-16 μg/mL) | A (A: <8 μg/mL) | B (B: 8-16 μg/mL) | C (C: 16-128 μg/mL) | C (C: 16-128 μg/mL) | A (A: <8 μg/mL) | C (C: 16-128 μg/mL) | C (C: 16-128 μg/mL) | A (A: <8 μg/mL) | A (A: <8 μg/mL) | A (A: <8 μg/mL) | A (A: <8 μg/mL) | A (A: <8 μg/mL) | A (A: <8 μg/mL) | C (C: 16-128 μg/mL) |
